# Experimental data published in paper PMC8286817, “Identifying SARS-CoV-2 antiviral compounds by screening for small molecule inhibitors of Nsp14 RNA cap methyltransferase” (Biochemical Journal, 2021).
# Where a name gives a salt, the structure may show the parent alone. Peptide text beside a SMILES is read from it. * marks the point of attachment. Cbz = O=C(OCc1ccccc1)*
# Target: T1, SARS-CoV-2 nsp14 guanine-N7 methyltransferase (Severe acute respiratory syndrome coronavirus 2, UniProt P0DTD1)
# Assay: biochemical
# Assay type: biochemical
# Conditions: not given
Compound,IC50 [µM],Inhibition of nsp14 activity (HTRF signal)
Nc1nc(OCc2cc(Br)cs2)c2[nH]cnc2n1 [Lomeguatrib],59.8,–
O=C(CCCN1CCC(O)(c2cccc(C(F)(F)F)c2)CC1)c1ccc(F)cc1 [Trifluperidol],12.9,–
Nc1ncnc2c1ncn2[C@@H]1O[C@H](C[C@@H](N)CC[C@H](N)C(=O)O)[C@@H](O)[C@H]1O [sinefungin],–,inhibited nsp14 activity in a dose-dependent manner

# Same assay, conditions: read-out: Km (Michaelis constant) of substrate for nsp14
row,Compound,Km [µM]
1,Nc1nc2c(ncn2[C@@H]2O[C@H](COP(=O)(O)OP(=O)(O)OP(=O)(O)O)[C@@H](O)[C@H]2O)c(=O)[nH]1 [GTP],301 ± 110
2,Nc1nc2c(ncn2[C@@H]2O[C@H](COP(=O)(O)OP(=O)(O)OP(=O)(O)OC[C@H]3O[C@@H](n4cnc5c(N)ncnc54)[C@H](O)[C@@H]3O)[C@@H](O)[C@H]2O)c(=O)[nH]1 [GpppA],114 ± 21

# Same assay, conditions: read-out: Normalised HTRF50 (inhibition of nsp14 methyltransferase activity)
row,Compound,IC50 [µM]
1,Inauhzin,23

# Target: T1, SARS-CoV-2 nsp14 guanine-N7 methyltransferase
# Assay: not given
# Assay type: biochemical
# Conditions: not given
row,Compound,Z-Score in primary screen
1,"CC(N)c1cccc(Cl)c1Cl.Cl (racemic) [(±)-2,3-Dichloro-alpha-methylbenzylamine hydrochloride]",3.186
2,C[C@@H]1O[C@H](C[N+](C)(C)C)C[C@H]1O.[Cl-] (racemic) [(±)-Muscarine chloride],3.736
3,"CCCCC[C@H](O)/C=C/C=C\C/C=C\C=C\[C@@H](O)CCCC(=O)O [5(S),15(S)-DIHETE]",3.436
4,"Br.NC1CCc2cc(O)c(O)cc2C1 (stereo not shown) [6,7-ADTN hydrobromide]",3.690
5,"CCC(Sc1nnc2c(n1)[nH]c1ccccc12)C(=O)N1c2ccccc2Sc2ccccc21 (stereo not shown) [10-[2-(5H-[1,2,4]triazino[5,6-b]indol-3-ylsulfanyl)butanoyl]-10H-phenothiazine]",5.999
6,C1=C2CCCN[C@H]2[C@@H]2C[C@H]1[C@H]1CCCCN1C2 [Aloperine],6.366
7,C[C@@H]1CC[C@H]2[C@@H](C)C(=O)O[C@@H]3O[C@@]4(C)CC[C@@H]1[C@]32OO4 [Artemisisin],2.850
8,CCCCOc1ccc(CC(=O)NO)cc1 [Bufexamac],5.383
9,CCCCNc1cc(C(=O)O)cc(S(N)(=O)=O)c1Oc1ccccc1 [Bumetanide],3.246
10,CCCCN1CCCCC1C(=O)Nc1c(C)cccc1C (stereo not shown) [Bupivacaine],3.673
11,C[C@H](N)C(=O)N1C[C@H](CCCB(O)O)[C@](N)(C(=O)O)C1 [CB-1158 (dihydrochloride)],4.540
12,CC(C[N+](C)(C)C)OC(N)=O (stereo not drawn) [Carbamyl-beta-methylcholine],3.385
13,Cc1c(C(=O)O)c(O)cc2c1C(=O)c1c(O)c([C@@H]3O[C@H](CO)[C@@H](O)[C@H](O)[C@H]3O)c(O)c(O)c1C2=O [Carminic acid],3.060
14,CCn1nc(C(=O)O)c(=O)c2cc3c(cc21)OCO3 [Cinoxacin],3.126
15,c1ccc(CNc2nc(NCc3ccccc3)c3ccccc3n2)cc1 [DBeQ],4.776
16,c1ccc2c(c1)N=C(N1CCNCC1)c1ccccc1N2 [DREADD agonist 21],3.333
17,CNCCCN1c2ccccc2CCc2ccccc21 [Desipramine hydrochloride],4.460
18,COc1ccc2c(c1)[C@]13CCCC[C@@H]1[C@H](C2)N(C)CC3 [Dextromethorphan],3.036
19,O=c1c2ccccc2[se]n1-c1ccccc1 [Ebselen],5.010
20,CCC1(C)CC(=O)NC1=O (stereo not shown) [Ethosuximide],3.595
21,CC(Cc1ccc(O)cc1)NCC(O)c1cc(O)cc(O)c1 (stereo not shown) [Fenoterol hydrobromide],3.275
22,CC(C)C(=O)Nc1ccc([N+](=O)[O-])c(C(F)(F)F)c1 [Flutamide],3.970
23,C[C@]12CCC(=O)C=C1CC[C@@H]1[C@@H]2[C@@H](O)C[C@@]2(C)[C@H]1CC[C@]2(O)C(=O)CO [Hydrocortisone],4.062
24,COc1cc2c(cc1OC)CC(=O)N(CCCN(C)C[C@H]1Cc3cc(OC)c(OC)cc31)CC2 [Ivabradine],2.786
25,CCN1C[C@]2(C)CC[C@H](O)[C@]34C1[C@@H](C[C@H]23)[C@@]1(O)C[C@H](OC)[C@H]2C[C@@H]4[C@@H]1[C@H]2O [Karakoline],3.794
26,"Cl.Cl.Cl.Ic1ccc(N2CCN(Cc3c[nH]c4ncccc34)CC2)cc1 [L-750,667 trihydrochloride]",3.788
27,Nc1nc(OCc2cc(Br)cs2)c2[nH]cnc2n1 [Lomeguatrib],2.697
28,CC(C)[C@H](NC(=O)OCc1ccccc1)C(=O)N[C@H](C=O)Cc1ccccc1 [MDL 28170] (Cbz-Val-Phe-aldehyde),3.310

row,Compound,Z-Score in primary screen
1,CNC[C@H](O)[C@@H](O)[C@H](O)[C@H](O)CO [Meglumine],3.529
2,CC1(C)CNc2cc(NC(=O)c3cccnc3NCc3ccncc3)ccc21 [Motesanib],3.875
3,O=c1c(O)c(-c2cc(O)c(O)c(O)c2)oc2cc(O)cc(O)c12 [Myricetin],6.539
4,"CC(COc1ccc(/C=C/c2ccccc2)cc1)[N+](C)(C)C.[I-] (stereo not drawn) [N,N,N-trimethyl-1-(4-trans-stilbenoxy)-2-propylammonium iodide]",3.028
5,CNCCc1ccc(O)c(O)c1.Cl [N-Methyldopamine hydrochloride],3.906
6,COc1ccc(C2=N[C@H](c3ccc(Cl)cc3)[C@H](c3ccc(Cl)cc3)N2C(=O)N2CCNC(=O)C2)c(OC(C)C)c1 [Nutlin (3b)],4.552
7,O=C(O)CCCCCCC(=O)O [Octanedioic acid],3.256
8,N#Cc1ccc(N2N=C3c4ccc(C(=O)O)cc4CC[C@@H]3[C@@H]2C2CCCC2)cc1Cl [PF-03882845],5.080
9,CCCN1C[C@H](CSC)C[C@@H]2c3cccc4[nH]cc(c34)C[C@H]21 [Pergolide methanesulfonate],3.690
10,O=C1NC(=O)C(c2ccccc2)(c2ccccc2)N1 [Phenytoin sodium],3.651
11,CCCCCCCCCCCCCC(=O)O[C@@H]1[C@@H](C)[C@@]2(O)[C@@H](C=C(CO)C[C@]3(O)C(=O)C(C)=C[C@@H]23)[C@@H]2C(C)(C)[C@]12OC(C)=O [Phorbol 12-myristate 13-acetate],7.036
12,CN1CCc2cc(Cl)c(O)cc2[C@@H](c2ccccc2)C1.Cl [R(+)-SCH-23390 hydrochloride],3.847
13,COc1ccc(CCNC[C@H](O)c2ccc(O)cc2)cc1OC [R(-)-Denopamine],5.027
14,Cc1cncc(CN2CCC(=C3c4ccc(Cl)cc4CCc4cccnc43)CC2)c1.O=C(O)/C=C/C(=O)O [Rupatadine Fumarate],3.745
15,C[n+]1ccccc1CC(=O)c1ccc(Br)cc1.[I-] [S 24795],3.557
16,Nc1ncnc2c1ncn2C1CCCO1 (stereo not shown) [SQ 22536],3.378
17,Cl.NC1CCN(c2cccc(Cl)n2)CC1 [SR 57227A],4.099
18,NC(=O)C(=O)O [Sodium Oxamate],3.379
19,CCN(CC)CC.Nc1ncnc2c1ncn2[C@@H]1O[C@@H]2COP(O)(=S)O[C@H]2[C@H]1O (stereo partly shown) [Sp-cAMPS triethylamine],3.048
20,C[N+]1(C)CCC[C@H]1C(=O)[O-].Cl [Stachydine hydrochloride],2.622
21,O=C(CCCN1CCC(O)(c2cccc(C(F)(F)F)c2)CC1)c1ccc(F)cc1 [Trifluperidol],5.671
22,CC(C)(C)c1cc(C=C(C#N)C#N)cc(C(C)(C)C)c1O [Tyrphostin A9],3.261
23,"Brc1c(NC2=NCCN2)ccc2nccnc12 [UK 14,304]",3.074
24,NC(N)=NCc1cccc(I)c1.NC(N)=NCc1cccc(I)c1.O=S(=O)(O)O [m-Iodobenzylguanidine hemisulfate],4.530
25,Nc1ccc(C(=O)O)cc1 [p-Aminobenzoic acid],2.479
26,Bioymifi,3.204
27,Inauhzin,3.833
